From patent US9056899B2 (priority 2008, dated 2015)
Values after ≈ are worked out from the molar mass of the structure shown.

Assays:
E. coli EMG2 [1] = test: Minimum inhibitory concentration of ofloxacin; assay type: cell-based; conditions: Escherichia coli, data not shown
E. coli EMG2 [2] = test: Antibiotic resistance assay; assay type: cell-based; conditions: 30 ng/mL ofloxacin 24 hours; phage (10^9 PFU/mL) added for the last 12 hours where named
Method: Antibiotic resistance assay. To analyze the effect of subinhibitory concentrations of ofloxacin on the development of antibiotic-resistant mutants, the inventors grew 1:10^8 dilutions of overnight EMG2 in LB media containing either no ofloxacin (FIG. 4) or 30 ng/mL ofloxacin (FIG. 7). After 12 hours of growth at 37° C. and 300 rpm, the inventors split the cells grown in no ofloxacin into 100 uL aliquots with no ofloxacin in 60 wells in 96-well plate format (Costar 3370; Fisher Scientific, Pittsburgh, Pa.). The inventors also split the cells grown in 30 ng/mL ofloxacin into 100 uL aliquots in 60 wells with either no phage and 30 ng/mL ofloxacin (FIG. 7B), φunmod phage and 30 ng/mL ofloxacin (FIG. 7C), and φlexA3 and 30 ng/mL ofloxacin (FIG. 7D) in 96-well plate format. The inventors placed the 96-well plates in 37° C. and 300 rpm with plastic bags to minimize evaporation. After 12 hours of treatment, the inventors plated cultures from each well on LB agar+100 ng/mL ofloxacin to select for mutants that developed resistance against ofloxacin. To compare results, the inventors plotted histograms of the number of resistant bacteria found in each well in FIGS. 4 and 8.

E. coli EMG2 [3] = test: Ofloxacin killing assay; assay type: cell-based; conditions: 60 ng/mL ofloxacin, no phage, 6 hours of treatment
Method: Determination of colony forming units. To obtain CFU counts, 150 μL of relevant cultures were collected, washed with 1× phosphate-buffered saline (PBS), recollected, and resuspended in 150 μL of 1×PBS. Serial dilutions were performed with 1×PBS and sampled on LB agar plates. LB agar plates were incubated at 37° C. overnight before counting.
Ofloxacin killing assay. To determine the adjuvant effect of engineered phage (FIG. 1B, FIG. 3A and FIG. 3D), the inventors grew 1:500 dilutions of overnight EMG2 cells for 3 hours and 30 minutes at 37° C. and 300 rpm to late-exponential phase and determined initial CFUs. Then, the inventors added 60 ng/mL ofloxacin by itself or in combination with 10^8 PFU/mL bacteriophage (unmodified φunmod or engineered φLexA, φSoxR, φcsr, φompF, or φCsr-ompF phage) and treated at 37° C. and 300 rpm. At indicated time points, the inventors determined CFUs as described above. Mean killing (Δlog10 (CFU/mL)) was determined by subtracting mean initial log10 (CFU/mL) from mean log10 (CFU/mL) after treatment in order to compare data from different experiments. This protocol was replicated with E. coli RFS289 to determine the ofloxacin-enhancing effect of engineered φlexA3 phage against antibiotic-resistant bacteria (FIG. 2). […]

E. coli EMG2 [4] = test: Survival of mice infected with bacteria; assay type: in vivo; conditions: 8.8×10^7 CFU/mouse i.p.; 1 hour later i.v. 0.2 mg/kg ofloxacin with or without 10^9 PFU/mouse phage; observed 5 days
Method: After 1 hour, the mice received either no treatment or intravenous treatment with no phage, unmodified phage φunmod, or engineered phage φlexA3 with 0.2 mg/kg ofloxacin. 10^9 PFU/mouse phage was used.
Increasing Survival of Mice Infected with Bacteria. To determine the clinical relevance of antibiotic-enhancing phage in vivo, the inventors applied the engineered phage φlexA3 with ofloxacin to prevent death in mice infected with bacteria. Mice were injected with E. coli EMG2 intraperitoneally 1 hour prior to receiving different intravenous treatments (FIG. 3A). Eighty percent of mice that received φlexA3 with ofloxacin survived, compared with 50% and 20% for mice that received φunmod plus ofloxacin or ofloxacin alone, respectively (FIG. 3B).

SMILES: CC1COc2c(N3CCN(C)CC3)c(F)cc3c(=O)c(C(=O)O)cn1c23 (stereo not shown) [ofloxacin]
- MIC (E. coli EMG2 [1]): 0.06 µg/mL (≈ 0.166 µM)
- number of mutants resistant to 100 ng/mL ofloxacin (median of 60 samples) (E. coli EMG2 [2]): 1592
- reduction of bacteria exposed only to ofloxacin (E. coli EMG2 [3]): about 1.7 log10 (CFU/mL)
- mice that survived (E. coli EMG2 [4]): 20%
